From the NIST ThermoML archive (doi:10.1016/j.jct.2013.01.013)

How the values were obtained:
[1] = 101 kPa, Liquid; for viscosity: Capillary tube (Ostwald / Ubbelohde) method; for speed of sound: Linear variable-path acoustic interferometer; for mass density: Pycnometric method
[2] = xn = mol fraction of the nth substance listed; settings: 101 kPa, Liquid, x2 = 0; for viscosity: Capillary tube (Ostwald / Ubbelohde) method; for speed of sound: Linear variable-path acoustic interferometer; for mass density: Pycnometric method

CC(=O)N(C)C [N,N-dimethylethanamide]
[1]
Settings	mass density [kg/m3]	speed of sound [m/s]	viscosity [mPa·s]
288.15 K	945.5	1500.2	1.15
293.15 K	941	1482.6	1.038
298.15 K	936.5	1462.1	0.9443
303.15 K	932	1441.8	0.8792
308.15 K	927.5	1420.7	0.8179
313.15 K	923	1402.6	0.7696
318.15 K	918.5	1383.5	0.7346

CC(=O)N(C)C [N,N-dimethylethanamide] + C=C(C)C(=O)OC
[2]
Settings	mass density [kg/m3]	speed of sound [m/s]	viscosity [mPa·s]
288.15 K	945.5	1500.2	1.15
293.15 K	941	1482.6	1.038
298.15 K	936.5	1462.1	0.9443
303.15 K	932	1441.8	0.8792
308.15 K	927.5	1420.7	0.8179
313.15 K	923	1402.6	0.7696
318.15 K	918.5	1383.5	0.7346

CN(C)C=O [dimethylformamide]
[1]
Settings	mass density [kg/m3]	speed of sound [m/s]	viscosity [mPa·s]
288.15 K	953.61	1503.3	0.9452
293.15 K	949.1	1485.8	0.8685
298.15 K	944.6	1469.5	0.8123
303.15 K	940.1	1448.8	0.7647
308.15 K	935.6	1429.1	0.7189
313.15 K	931.1	1411.5	0.6851
318.15 K	926.6	1392.6	0.6642

CN(C)C=O [dimethylformamide] + C=C(C)C(=O)OC
[2]
Settings	mass density [kg/m3]	speed of sound [m/s]	viscosity [mPa·s]
288.15 K	953.61	1503.3	0.9452
293.15 K	949.1	1485.8	0.8685
298.15 K	944.6	1469.5	0.8123
303.15 K	940.1	1448.8	0.7647
308.15 K	935.6	1429.1	0.7189
313.15 K	931.1	1411.5	0.6851
318.15 K	926.6	1392.6	0.6642

C=C(C)C(=O)OC [methyl methacrylate]
[1]
Settings	mass density [kg/m3]	speed of sound [m/s]	viscosity [mPa·s]
288.15 K	949.1	1216.8	0.634
293.15 K	943.37	1200.5	0.5903
298.15 K	937.63	1183.6	0.5544
303.15 K	931.89	1168.5	0.5251
308.15 K	926.15	1152.6	0.496
313.15 K	920.41	1135.4	0.4723
318.15 K	914.66	1118.3	0.4499
